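Step 1: Grow cells in 96-well plates. Step 2: Expose to compound for 48 hours at 5 concentrations. Step 3: Interpolate endpoints linearly; if unreached, use highest concentration. TGI: concentration producing complete growth inhibition.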
Key:
Assay in all cases: NCI anticancer screen, dose series, 48 h
786-0 renal = tested on: 786-0 renal
A498 renal = tested on: A498 renal
A549 NSCLC = tested on: A549 NSCLC
ACHN renal = tested on: ACHN renal
BT-549 breast = tested on: BT-549 breast
CAKI-1 renal = tested on: CAKI-1 renal
CCRF-CEM leukemia = tested on: CCRF-CEM leukemia
COLO 205 colon = tested on: COLO 205 colon
DU-145 prostate = tested on: DU-145 prostate
EKVX NSCLC = tested on: EKVX NSCLC
HCC-2998 colon = tested on: HCC-2998 colon
HCT-116 colon = tested on: HCT-116 colon
HCT-15 colon = tested on: HCT-15 colon
HL-60(TB) leukemia = tested on: HL-60(TB) leukemia
HOP-62 NSCLC = tested on: HOP-62 NSCLC
HOP-92 NSCLC = tested on: HOP-92 NSCLC
HS 578T breast = tested on: HS 578T breast
HT29 colon = tested on: HT29 colon
IGROV1 ovarian = tested on: IGROV1 ovarian
K-562 leukemia = tested on: K-562 leukemia
KM12 colon = tested on: KM12 colon
LOX IMVI melanoma = tested on: LOX IMVI melanoma
M14 melanoma = tested on: M14 melanoma
MALME-3M melanoma = tested on: MALME-3M melanoma
MCF7 breast = tested on: MCF7 breast
MDA-MB-231 breast = tested on: MDA-MB-231 breast
MDA-MB-435 = tested on: MDA-MB-435
MDA-N = tested on: MDA-N
MOLT-4 leukemia = tested on: MOLT-4 leukemia
NCI-H226 lung = tested on: NCI-H226 lung
NCI-H23 lung = tested on: NCI-H23 lung
NCI-H460 lung = tested on: NCI-H460 lung
NCI-H522 lung = tested on: NCI-H522 lung
NCI/ADR-RES ovarian = tested on: NCI/ADR-RES ovarian
OVCAR-3 ovarian = tested on: OVCAR-3 ovarian
OVCAR-4 ovarian = tested on: OVCAR-4 ovarian
OVCAR-5 ovarian = tested on: OVCAR-5 ovarian
OVCAR-8 ovarian = tested on: OVCAR-8 ovarian
PC-3 prostate = tested on: PC-3 prostate
RPMI-8226 leukemia = tested on: RPMI-8226 leukemia
RXF 393 renal = tested on: RXF 393 renal
SF-268 CNS = tested on: SF-268 CNS
SF-295 CNS = tested on: SF-295 CNS
SF-539 CNS = tested on: SF-539 CNS
SK-MEL-2 melanoma = tested on: SK-MEL-2 melanoma
SK-MEL-28 melanoma = tested on: SK-MEL-28 melanoma
SK-MEL-5 melanoma = tested on: SK-MEL-5 melanoma
SK-OV-3 ovarian = tested on: SK-OV-3 ovarian
SN12C renal = tested on: SN12C renal
SNB-19 CNS = tested on: SNB-19 CNS
SNB-75 CNS = tested on: SNB-75 CNS
SR leukemia = tested on: SR leukemia
SW-620 colon = tested on: SW-620 colon
T-47D breast = tested on: T-47D breast
TK-10 renal = tested on: TK-10 renal
U251 CNS = tested on: U251 CNS
UACC-257 melanoma = tested on: UACC-257 melanoma
UACC-62 melanoma = tested on: UACC-62 melanoma
UO-31 renal = tested on: UO-31 renal

Measured: TGI

Cc1cc(=O)n2nc(CSc3nnc(Sc4cc(O)ccc4O)s3)sc2n1
61.4 µM: RPMI-8226 leukemia
41.1 µM: K-562 leukemia
32.8 µM: MDA-N
41.2 µM: HCT-116 colon
36.3 µM: LOX IMVI melanoma
30.9 µM: MCF7 breast
54.1 µM: HL-60(TB) leukemia
59.5 µM: MOLT-4 leukemia
97.4 µM: MDA-MB-231 breast
46.2 µM: NCI-H522 lung
44.5 µM: SW-620 colon
73.6 µM: T-47D breast
32.7 µM: MDA-MB-435
48.6 µM: CCRF-CEM leukemia
> 100 µM: all other assays above

CC(C)=CCc1c2c(c(O)c3c(=O)c4c(oc13)-c1ccc(O)cc1OC4C=C(C)C)C=CC(C)(C)O2 (centres undefined)
28.1 µM: BT-549 breast
34.3 µM: MALME-3M melanoma
25.9 µM: K-562 leukemia
33.7 µM: UO-31 renal
20.3 µM: NCI-H23 lung
26.9 µM: NCI-H522 lung
27.8 µM: IGROV1 ovarian
40.6 µM: NCI-H226 lung
37.1 µM: COLO 205 colon
27.5 µM: DU-145 prostate
30.4 µM: NCI-H460 lung
28.9 µM: HT29 colon | MCF7 breast
24.7 µM: ACHN renal | PC-3 prostate
17 µM: SN12C renal
33.3 µM: SK-OV-3 ovarian
11 µM: HCC-2998 colon
28.8 µM: OVCAR-8 ovarian
23.9 µM: 786-0 renal
29.8 µM: SF-268 CNS
21.7 µM: KM12 colon
23.8 µM: LOX IMVI melanoma
21 µM: HCT-116 colon
28.6 µM: SF-295 CNS
14.9 µM: RPMI-8226 leukemia
23.5 µM: SW-620 colon
31.7 µM: HL-60(TB) leukemia
22.7 µM: MOLT-4 leukemia
25.2 µM: OVCAR-3 ovarian
29.4 µM: UACC-257 melanoma
34.6 µM: NCI/ADR-RES ovarian
20.8 µM: HOP-92 NSCLC
28.4 µM: HOP-62 NSCLC
32.8 µM: SF-539 CNS
30.2 µM: SNB-19 CNS
24.6 µM: A549 NSCLC
29.2 µM: SK-MEL-28 melanoma
35.9 µM: OVCAR-5 ovarian
28 µM: MDA-MB-231 breast
23.3 µM: MDA-MB-435
25.3 µM: SNB-75 CNS | U251 CNS
30.3 µM: EKVX NSCLC
27.1 µM: MDA-N
28.5 µM: TK-10 renal
27.4 µM: UACC-62 melanoma
17.2 µM: HS 578T breast
23 µM: T-47D breast
34.9 µM: A498 renal
16 µM: SR leukemia
26.1 µM: SK-MEL-2 melanoma
28.2 µM: SK-MEL-5 melanoma
20.1 µM: RXF 393 renal
15.5 µM: CCRF-CEM leukemia
35.4 µM: M14 melanoma
34.4 µM: CAKI-1 renal
24.8 µM: HCT-15 colon | OVCAR-4 ovarian

CC(=O)NN(c1ccccc1)C1CCN(c2ccccc2)N1C(C)=O (centres undefined)
7.65 µM: K-562 leukemia
not listed: A498 renal | HOP-92 NSCLC | KM12 colon | U251 CNS | UACC-62 melanoma
> 10 µM: all other assays above

CC(=O)N[C@@H](Cc1ccc(O)cn1)C(=O)NC1CCCCC1
not listed: HL-60(TB) leukemia | MALME-3M melanoma | NCI-H460 lung | RXF 393 renal | SNB-75 CNS
> 100 µM: all other assays above

C#CCOC(=O)C(=[N+]=[N-])C(=O)CC(C)C
not listed: NCI-H522 lung | SNB-75 CNS
> 10 µM: all other assays above

Cc1ccc(S(=O)(=O)N2CCC(C(=O)O)(c3ccccc3)CC2)cc1
not listed: HCC-2998 colon
> 100 µM: all other assays above

Cc1ccc2nc(C(=O)O)c(=O)[nH]c2c1
not listed: SNB-75 CNS
> 100 µM: all other assays above

Reference: PubChem BioAssay (NCI)
